Reference: PMC10044640, “Antimicrobial Peptides Designed against the Ω-Loop of Class A β-Lactamases to Potentiate the Efficacy of β-Lactam Antibiotics” (Antibiotics, 2023)
Like-named read-outs stand apart in the source and are kept apart here.

What was measured:
[1] = test system: Gram-negative strains (E. coli CS109, K. pneumoniae); assay: HT-SPOTi, cephalosporins with peptides; format: cell-based, Escherichia coli; Klebsiella pneumoniae; conditions: strain not given
Method: HT-SPOTi (high-throughput spot culture growth inhibition) assay was used to evaluate the whole cell phenotypic effect of peptides against a selection of Gram-negative and acid-fast bacterial strains in the presence of β-lactam antibiotics as previously described. The distribution of the molten agar media into the 96 wells was achieved using the Multidrop Combi microplate dispenser (Thermo-Fisher Scientific). Plates were left for 5 min for the agar to set, and a diluted inoculum of bacteria was applied (2 µL of ∼10^3 CFU) into each well by either the use of a multi-channel pipettor or by using the Multidrop Combi. DMSO was taken as no antibiotic control and kanamycin as non-β-lactam drug control. Unless otherwise specified, all the experiments were performed in triplicate.
To check the inhibitory activity of peptides and comprehend particular structure–activity relationships, HT-SPOTi assay was performed. The whole-cell phenotypic effect of the 10 pentapeptides was ascertained in combination with β-lactam antibiotics in E. coli CS109 and K. pneumoniae.

K. pneumoniae = assay: HT-SPOTi MIC of β-lactams with or without peptides; format: cell-based, Klebsiella pneumoniae; conditions: for MIC Value Antibiotics, β-lactam alone: K. pneumoniae, no peptide, triplicate
E. coli CS109 [2] = assay: HT-SPOTi MIC of β-lactams with or without peptides; format: cell-based, Escherichia coli; conditions: for MIC Value Antibiotics, β-lactam alone: E. coli CS109, no peptide, HT-SPOTi agar, ~10^3 CFU/well, triplicate
TEM-1 = target: T1, TEM-1 (Escherichia coli, UniProt P62593); assay: Kinetics of β-lactam hydrolysis with or without peptides; format: biochemical
T1 construct: The full-length constructs (blaSHV-14 and blaTEM-1) were cloned and expressed in pBAD18-Cam (Cam^R) vector; 6xHis (N); made in house; host or cells: E. coli BL21 (DE3) pLysS, pET28a(+)
T1 sequence (P62593 24-286 limits assumed): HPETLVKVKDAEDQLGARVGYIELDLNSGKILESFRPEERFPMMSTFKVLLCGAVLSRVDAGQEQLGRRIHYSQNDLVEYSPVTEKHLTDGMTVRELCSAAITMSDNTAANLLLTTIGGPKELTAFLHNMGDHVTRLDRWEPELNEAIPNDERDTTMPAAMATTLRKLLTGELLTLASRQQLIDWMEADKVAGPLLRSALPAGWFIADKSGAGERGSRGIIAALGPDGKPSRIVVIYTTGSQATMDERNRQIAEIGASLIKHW
Method: (§1) The N-terminal 6X histidine-tagged proteins (SHV-14 and TEM-1) were expressed from the respective plasmid constructs already available in the laboratory and were purified by Ni-NTA affinity chromatography using an AKTA prime plus (GE Healthcare, Piscataway, NJ, USA) as described previously. Nitrocefin hydrolysis was used to validate the β-lactamase activity of both proteins.
(§2) Assessment of enzyme activities was carried out by calculating the kinetic parameters [Michaelis–Menten constants (Km and Vmax), turn-over number (kcat), and catalytic efficiency (kcat/Km)] with various β-lactam substrates in the presence of the peptides as described previously. The hydrolysis reaction was carried out at 25 °C in 10 mM Tris-HCl, 300 mM NaCl (pH 7.5) buffer supplemented with 1 μg mL^−1 bovine serum albumin for protein stability. The enzyme concentrations (0.46 μM: SHV-14 and 0.42 μM: TEM-1) were taken to determine the initial rate constants at varying substrate concentrations (20–500 μM). The values were calculated using the online curve-fitting tool (https://www.mycurvefit.com, MyAssays Ltd., Brighton, UK, accessed on 25 May 2022).

E. coli CS109 [3] = assay: Broth microdilution MIC; format: cell-based, Escherichia coli; conditions: E. coli CS109, no peptide; broth microdilution (CLSI), MHB, ~10^5 cells/well, OD600; triplicate
[4] = test system: E. coli CS109 + pBAD-TEM1; format: cell-based, Escherichia coli; conditions: E. coli CS109 + pBAD-TEM1 (arabinose-induced), no peptide; HT-SPOTi
[5] = test system: E. coli CS109 + pBAD-SHV-14; format: cell-based, Escherichia coli
[6] = test system: E. coli CS109 + pBAD-SHV-14; format: cell-based, Escherichia coli; conditions: E. coli CS109 + pBAD-SHV-14 (arabinose-induced), no peptide; HT-SPOTi
SHV-14 = assay: Kinetics of β-lactam hydrolysis with or without peptides; format: biochemical, Klebsiella pneumoniae; conditions: SHV-14 0.46 μM, no peptide, 25 °C; for Km: 10 mM Tris-HCl, 300 mM NaCl pH 7.5, 1 μg/mL BSA, substrate 20–500 μM, read-out: Km, β-lactam substrate alone; for kcat, β-lactam substrate alone: pH 7.5
Method: as §1, §2

M. tuberculosis H37Rv = assay: HT-SPOTi MIC of ampicillin with or without peptides; format: cell-based; conditions: Mycobacterium tuberculosis, MTB H37Rv, control row of Table S2, read-out: MIC value, control drug
[7] = test system: CCN1CCN(C(=O)N[C@@H](C(=O)N[C@@H]2C(=O)N3[C@@H]2SC(C)(C)[C@@H]3C(=O)O)c2ccccc2)C(=O)C1=O; assay: Kinetics of β-lactam hydrolysis with or without peptides; format: biochemical, Escherichia coli; conditions: other: TEM-1 0.42 μM, no peptide, 25 °C, 10 mM Tris-HCl, 300 mM NaCl pH 7.5, 1 μg/mL BSA, substrate 20–500 μM
Method: as §1, §2

[8] = test system: CC1(C)S[C@@H]2[C@H](NC(=O)[C@H](N)c3ccc(O)cc3)C(=O)N2[C@H]1C(=O)O; assay: as above; format: biochemical, Escherichia coli; conditions: other: TEM-1 0.42 μM, no peptide, 25 °C, 10 mM Tris-HCl, 300 mM NaCl pH 7.5, 1 μg/mL BSA, substrate 20–500 μM
Method: as §1, §2

M. smegmatis MC2 155 = assay: HT-SPOTi MIC of β-lactams with or without peptides; format: cell-based, Mycobacterium smegmatis; conditions: no peptide, triplicate
[9] = test system: E. coli CS109 + pBAD-TEM1; format: cell-based, Escherichia coli; conditions: CS109 + pBAD-TEM1, no peptide; broth microdilution, MHB, ~10^5 cells/well, OD600
[10] = TEM-1 0.42 μM, no peptide; 25 °C, pH 7.5
[11] = CS109 + pBAD-SHV-14, no peptide, broth microdilution, MHB, ~10^5 cells/well, OD600

| Molecule | levels of resistance to the cephalosporin with peptides [1] | MIC Value Antibiotics, β-lactam alone (K. pneumoniae) [µg/mL] | MIC Value of Antibiotics, β-lactam alone (E. coli CS109 [3]) [µg/mL] | MIC Value Antibiotics, β-lactam alone (E. coli CS109 [2]) [µg/mL] | MIC Value of Antibiotics, β-lactam alone [4] [µg/mL] | Km (SHV-14) [µM] | kcat, β-lactam substrate alone (SHV-14) [s⁻¹] | also measured |
| --- | --- | --- | --- | --- | --- | --- | --- | --- |
| N[C@@H](C(=O)N[C@@H]1C(=O)N2C(C(=O)O)=C(Cl)CS[C@H]12)c1ccccc1 [cefaclor] | remained unaltered |  |  |  |  |  |  |  |
| NC[C@H]1O[C@H](O[C@H]2[C@H](O)[C@@H](O[C@H]3O[C@H](CO)[C@@H](O)[C@H](N)[C@H]3O)[C@H](N)C[C@@H]2N)[C@H](O)[C@@H](O)[C@@H]1O [Kanamycin] |  |  |  |  |  |  |  | MIC Value, non-β-lactam drug control (K. pneumoniae; Table 3b control row, one value printed under each column Pen, Amp, Amx, Pip): 64 µg/mL; MIC Value, non-β-lactam drug control (E. coli CS109 [2]; Table 4 control row, construct not given, one value under each column Pen, Amp, Amx, Pip, HT-SPOTi): 64 µg/mL |
| Penicillin |  | 32 | 64 | 32 | 64 | 144 ± 4.43 | 586.95 ± 15.97 | Km (TEM-1; TEM-1 0.42 μM, no peptide; 25 °C, 10 mM Tris-HCl, 300 mM NaCl pH 7.5, 1 μg/mL BSA; substrate 20–500 μM; read-out: Km, β-lactam substrate alone): 67.2 ± 4.43 µM; kcat, β-lactam substrate alone (TEM-1; [10]): 386.95 ± 15.97 s⁻¹; MIC Value of Antibiotics, β-lactam alone [5]: 500 µg/mL; MIC Value of Antibiotics, β-lactam alone [6]: 250 µg/mL |
| NNC(=O)c1ccncc1 [Isoniazid] |  |  |  |  |  |  |  | MIC (M. tuberculosis H37Rv): 2 µg/mL |
| TEM-1 (Escherichia coli) |  |  |  |  |  |  |  | Km [7]: 136.32 ± 12.16 µM; kcat [7]: 331 ± 12.2 s⁻¹; Km [8]: 105.09 ± 12.16 µM; kcat [8]: 427 ± 21 s⁻¹ |
| CO/N=C(\C(=O)N[C@@H]1C(=O)N2C(C(=O)[O-])=C(C[N+]3(C)CCCC3)CS[C@H]12)c1csc(N)n1 [cefepime] | remained unaltered |  |  |  |  |  |  |  |
| CCN1CCN(C(=O)N[C@@H](C(=O)N[C@@H]2C(=O)N3[C@@H]2SC(C)(C)[C@@H]3C(=O)O)c2ccccc2)C(=O)C1=O [Pip, Piperacillin] |  | 64 | 16 | 16 | 64 | 98.7 ± 12.2 | 432.09 ± 5.97 | MIC Value Antibiotics, β-lactam alone (M. smegmatis MC2 155): >250 µg/mL; MIC Value of Antibiotics, β-lactam alone [5, 11]: 125 µg/mL; MIC Value of Antibiotics, β-lactam alone [6]: 64 µg/mL; MIC Value of Antibiotics, β-lactam alone [9]: 125 µg/mL |
| CC(C)(O/N=C(\C(=O)N[C@@H]1C(=O)N2C(C(=O)[O-])=C(C[n+]3ccccc3)CS[C@H]12)c1csc(N)n1)C(=O)O [ceftazidime] | remained unaltered |  |  |  |  |  |  |  |
| CCN1CCN(C(=O)N[C@@H](C(=O)N[C@@H]2C(=O)N3C(C(=O)O)=C(CSc4nnnn4C)CS[C@H]23)c2ccc(O)cc2)C(=O)C1=O [cefoperazone] | remained unaltered |  |  |  |  |  |  |  |
| CC1=C(C(=O)O)N2C(=O)[C@@H](NC(=O)[C@H](N)c3ccc(O)cc3)[C@H]2SC1 [cefadroxil] | remained unaltered |  |  |  |  |  |  |  |
| CC1(C)S[C@@H]2[C@H](NC(=O)[C@H](N)c3ccc(O)cc3)C(=O)N2[C@H]1C(=O)O [Amx, Amoxicillin] |  | 64 | 16 | 8 | 32 | 112 ± 12.2 | 416.95 ± 5.02 | MIC Value Antibiotics, β-lactam alone (M. smegmatis MC2 155): 2 µg/mL; MIC Value of Antibiotics, β-lactam alone [9]: 64 µg/mL |
| CC1(C)S[C@@H]2[C@H](NC(=O)[C@H](N)c3ccccc3)C(=O)N2[C@H]1C(=O)O [Amp, Ampicillin] |  | 32 | 8 | 4 | 16 | 187 ± 12.2 | 644.95 ± 10.97 | MIC Value Antibiotics, β-lactam alone (M. smegmatis MC2 155): 4 µg/mL; kcat, β-lactam substrate alone (TEM-1; [10]): 290 ± 85.55 s⁻¹; Km (TEM-1; read-out: Km, β-lactam substrate alone; TEM-1 0.42 μM, no peptide; 25 °C, 10 mM Tris-HCl, 300 mM NaCl pH 7.5, 1 μg/mL BSA; substrate 20–500 μM): 66 ± 12.2 µM; MIC Value of Antibiotics, β-lactam alone [5, 11]: 64 µg/mL; MIC Value of Antibiotics, β-lactam alone [6]: 32 µg/mL; MIC Value of Antibiotics, β-lactam alone [9]: 32 µg/mL |
